Measured values published in patent publication US20230257367A1, “NOVEL THYROID HORMONE BETA RECEPTOR AGONIST” (Chengdu Kanghong Pharmaceutical Co., Ltd., priority 2020, published 2023).

Experiments:
primary hepatocyte = experiment: Hepatotoxicity detection in vitro (CellTiter-Glo); type: cell-based, human; conditions: primary hepatocytes
Experimental: Information of Primary Hepatocyte
Step 1: a test substance was prepared into a 200 mM DMSO stock solution, and then subjected to 3-times gradient continuous dilution by 7 concentrations, then 1.5 μL of each of the solutions of the 8 concentrations was added into 498.5 μL of incubation culture medium (with a composition referring to Table 5, directly mixed evenly) to prepare a working solution, and the incubation culture medium was preheated at 37° C. before preparation. DMSO was used as a solvent control. DMSO contents in the working solution and the solvent control were both 0.3 vol %. Concentrations of compounds were as follows:
Step 2: Plate Inoculation and Cell Culture
Second Step: Plate Inoculation and Culture of Cells
1) A tube of hepatocytes of the donor used in the experiment preserved at ultra-low temperature was taken, and the hepatocytes were ensured to be still frozen at low temperature before resuscitation. The hepatocytes were quickly placed in a water bath at 37° C. and gently shaken until all ice crystals were dispersed, and were transferred to a biosafety cabinet after spraying 70 vol % ethanol.
2) Contents of hepatocyte tubules were poured into a 50 mL centrifuge tube containing 50 mL of resuscitation culture medium (with a composition referring to Table 3, directly mixed evenly), and centrifuged at 80 g for 8 minutes. After centrifugation, the resuscitation culture medium was sucked out and an inoculation culture medium was added (with a composition referring to Table 4, directly mixed evenly). The cells were counted by AO/PI staining to obtain a cell suspension with a cell density of 0.2×10^6 cells per milliliter.
3) The cell suspension above was inoculated into a 96-well plate coated with collagen I, with 100 μL per well. The culture plate was placed in a 5% CO2 incubator with 95% relative humidity to culture for 4 hours to 6 hours.
4) After incubation for 4 hours to 6 hours, the state of the cells was observed under microscope. The culture plate was shaken gently, the inoculation culture medium was sucked out, and 100 μL of incubation culture medium was added into each well (with a composition referring to Table 5). A toxicity test could be carried out after culturing in the incubator for 18 hours to 20 hours.
5) Before administration, the morphology of the cells was observed under microscope. The culture medium in the culture plate was sucked out, and 100 μL of solvent control (DMSO), or test substance working solution was added into each well. Three parallel samples were tested under each condition.
6) The newly prepared working solution or solvent control was used for solution exchange every 24 hours after dosing.
After the working solution acted for 48 hours, the morphology of the cells was observed under microscope for later use.
Step 3: Cytotoxicity Detection
1) A CellTiter-Glo (Promega, article number G9243) reagent stored at −20° C. was melted in a water bath at 37° C.
2) After the cell culture plate obtained above was incubated for 48 hours, 50 μL of CellTiter-Glo solution was directly added into each experimental well.
3) The cell culture plate was vortexed at 400 rpm for 10 minutes, and incubated at room temperature to stabilize a luminescence signal.
After 10 minutes 100 μL of reaction solution was sucked from each well and transferred to a new white nontransparent-bottom flat plate (Corning 96-well plate Cat No. 3917). The
chemiluminescence value of each well was read by a microplate reader (a luminescence value of the white nontransparent-bottom flat plate was recorded as “a luminescence valueblank”; and a luminescence value of the solvent control was recorded as “a luminescence valuesolvent”).
Cell viability(%)=[(luminescence valueto-be-tested compound−luminescence valueblank)/(luminescence valuesolvent−luminescence valueblank)]×100% […]

NASH model = experiment: In vivo pharmacological experiment: DIO + CCl4 induced NASH model; design: species or system C57BL/6J male mice; conditions: oral, once per day
Experimental: In the early stages of this experiment, mice induced by DIO (diet-induced obesity) were fed with a high-fat diet, followed by intraperitoneal injection of CCl4 during high-fat diet feeding to induce the NASH model. In this model, the anti-NASH efficacy of the compound to be tested was evaluated Animal information: C57BL/6J male mice (18 weeks old) were used, comprising 32 DIO mice+8 normal mice, wherein the weight of DIO mice >38 g. [table] [table] Induction with CCl4: A 25% (volume ratio) of CCl4 solution was prepared by placing 1 part CCl4 and 3 parts olive oil in a glass bottle. The solution was mixed well and used right after it was ready Eight mice in the first group were intraperitoneally injected with normal saline solution as normal controls The mice in the 2rd to 5th groups were intraperitoneally injected with 25% CCl4 solution twice a week. 25% (volume ratio) CCl4 was administered by body weight, 0.5 ml/kg. The interval between the injection time of CCl4 and the time of administration on the day should be more than 4 hours Histopathological Analysis All liver samples were dehydrated by a dehydrating instrument (Leica HistoCore Pearl-0348) and then embedded by a paraffin embedding machine (HistoCoreArcadia). The embedded liver sample was then sliced using a Lecia RM2235 machine. NAS Score NAS scores were performed on HE (hematoxylin-eosin) stained slices as the sum of steatosis, balloon degeneration, and lobular inflammation. [table] […] Percentage of Fibrosis All slices stained with Sirius red were scanned by a Leica Aperio AT2 Brightfield scanner, and then a percentage of Sirius red positive staining area was calculated by the HALO AI system to evaluate the percentage area of the Sirius red in the total liver area scanned.

CC(C)c1nc(Oc2c(Cl)cc(-n3ncc(=O)[nH]c3=O)cc2Cl)ncc1O [KH06]
IC50 (primary hepatocyte; Homo sapiens, Hepatocyte, cell viability after 48 hours): 207 µM
Cell activity at the highest concentration (%) (primary hepatocyte; 48 hours, highest working solution concentration 600 μM): 4.50%
NAS score (sum of steatosis, ballooning degeneration and lobular inflammation) (NASH model; 1 and 3 mg/kg, compared with the model group, FIG. 2): significant reduction in score
fibrosis evaluation (percentage of Sirius red positive area) (NASH model; 1 and 3 mg/kg, day 0 to day 27, FIG. 1): reducing the proportion of fibrosis
fibrosis efficacy compared with MGL3196 at 3 mg/kg (NASH model; KH06 1 mg/kg, FIG. 1): better than that of MGL3196 at a dosage of 3 mg/kg
NAS score efficacy compared with MGL3196 at 3 mg/kg (NASH model; KH06 1 mg/kg, FIG. 2): same efficacy as MGL3196 at 3 mg/kg
